Test results published in ChEMBL document CHEMBL3046013, “Pyrithiobac reduces control of green foxtail (Setaria viridis) and bristly foxtail (Setaria verticillata) by propaquizafop” (2009).

Columns and labels:
Type in all cases: functional
Parameters in all cases: scale not given: the % may be the effect or the level left
Setaria verticillata [1] = test: Herbicidal activity against Setaria verticillata assessed as reduction of fresh weight at 75 g ai/ha after 45 days relative to control
Setaria verticillata [2] = test: Herbicidal activity against Setaria verticillata assessed as reduction of fresh weight at 75 g ai/ha after 45 days in presence of 68 g ai/ha of pyrithiobac treated 3 days before compound challenge relative to control
Setaria viridis [3] = test: Herbicidal activity against Setaria viridis (green foxtail) assessed as reduction of fresh weight at 125 g ai/ha after 45 days relative to control
Setaria viridis [4] = test: Herbicidal activity against Setaria viridis (green foxtail) assessed as reduction of fresh weight at 75 g ai/ha after 45 days in presence of 68 g ai/ha of pyrithiobac treated 3 days after compound challenge relative to control
Setaria verticillata [5] = test: Herbicidal activity against Setaria verticillata assessed as reduction of fresh weight at 75 g ai/ha after 45 days relative to control in presence of ammonium sulphate
Setaria verticillata [6] = test: Herbicidal activity against Setaria verticillata assessed as reduction of fresh weight at 150 g ai/ha after 45 days in presence of 68 g ai/ha of pyrithiobac relative to control
Setaria viridis [7] = test: Herbicidal activity against Setaria viridis (green foxtail) assessed as reduction of fresh weight at 75 g ai/ha after 45 days relative to control in presence of ammonium sulphate
Setaria verticillata [8] = test: Herbicidal activity against Setaria verticillata assessed as reduction of fresh weight at 75 g ai/ha after 45 days in presence of 68 g ai/ha of pyrithiobac relative to control
Setaria viridis [9] = test: Herbicidal activity against Setaria viridis (green foxtail) assessed as reduction of fresh weight at 150 g ai/ha after 45 days relative to control
Setaria viridis [10] = test: Herbicidal activity against Setaria viridis (green foxtail) assessed as reduction of fresh weight at 150 g ai/ha after 45 days in presence of 68 g ai/ha of pyrithiobac relative to control
Setaria viridis [11] = test: Herbicidal activity against Setaria viridis (green foxtail) assessed as reduction of fresh weight at 75 g ai/ha after 45 days in presence of 68 g ai/ha of pyrithiobac relative to control
Setaria verticillata [12] = test: Herbicidal activity against Setaria verticillata assessed as reduction of fresh weight at 75 g ai/ha after 45 days in presence of 68 g ai/ha of pyrithiobac treated 1 day after compound challenge relative to control
Setaria viridis [13] = test: Herbicidal activity against Setaria viridis (green foxtail) assessed as reduction of fresh weight at 100 g ai/ha after 45 days relative to control
Setaria viridis [14] = test: Herbicidal activity against Setaria viridis (green foxtail) assessed as reduction of fresh weight at 75 g ai/ha after 45 days in presence of 68 g ai/ha of pyrithiobac and ammonium sulphate relative to control
Setaria verticillata [15] = test: Herbicidal activity against Setaria verticillata assessed as reduction of fresh weight at 125 g ai/ha after 45 days in presence of 68 g ai/ha of pyrithiobac relative to control
Setaria viridis [16] = test: Herbicidal activity against Setaria viridis (green foxtail) assessed as reduction of fresh weight at 75 g ai/ha after 45 days relative to control
Setaria viridis [17] = test: Herbicidal activity against Setaria viridis (green foxtail) assessed as reduction of fresh weight at 100 g ai/ha after 45 days in presence of 68 g ai/ha of pyrithiobac relative to control
Setaria verticillata [18] = test: Herbicidal activity against Setaria verticillata assessed as reduction of fresh weight at 100 g ai/ha after 45 days in presence of 68 g ai/ha of pyrithiobac relative to control
Setaria verticillata [19] = test: Herbicidal activity against Setaria verticillata assessed as reduction of fresh weight at 150 g ai/ha after 45 days relative to control
Setaria verticillata [20] = test: Herbicidal activity against Setaria verticillata assessed as reduction of fresh weight at 125 g ai/ha after 45 days relative to control
Setaria viridis [21] = test: Herbicidal activity against Setaria viridis (green foxtail) assessed as reduction of fresh weight at 125 g ai/ha after 45 days in presence of 68 g ai/ha of pyrithiobac relative to control
Setaria verticillata [22] = test: Herbicidal activity against Setaria verticillata assessed as reduction of fresh weight at 75 g ai/ha after 45 days in presence of 68 g ai/ha of pyrithiobac treated 3 days after compound challenge relative to control
Setaria viridis [23] = test: Herbicidal activity against Setaria viridis (green foxtail) assessed as reduction of fresh weight at 75 g ai/ha after 45 days in presence of 68 g ai/ha of pyrithiobac treated 3 days before compound challenge relative to control
Setaria verticillata [24] = test: Herbicidal activity against Setaria verticillata assessed as reduction of fresh weight at 75 g ai/ha after 45 days in presence of 68 g ai/ha of pyrithiobac treated 1 day before compound challenge relative to control
Setaria verticillata [25] = test: Herbicidal activity against Setaria verticillata assessed as reduction of fresh weight at 100 g ai/ha after 45 days relative to control
Setaria viridis [26] = test: Herbicidal activity against Setaria viridis (green foxtail) assessed as reduction of fresh weight at 75 g ai/ha after 45 days in presence of 68 g ai/ha of pyrithiobac treated 1 day before compound challenge relative to control
Setaria viridis [27] = test: Herbicidal activity against Setaria viridis (green foxtail) assessed as reduction of fresh weight at 75 g ai/ha after 45 days in presence of 68 g ai/ha of pyrithiobac treated 1 day after compound challenge relative to control

## CC(C)=NOCCOC(=O)[C@@H](C)Oc1ccc(Oc2cnc3cc(Cl)ccc3n2)cc1 [PROPAQUIZAFOP]
Setaria verticillata [1]
  Activity: 92%
Setaria verticillata [2]
  Activity: 81%
Setaria viridis [3]
  Activity: 97%
Setaria viridis [4]
  Activity: 85%
Setaria verticillata [5]
  Activity: 94%
Setaria verticillata [6]
  Activity: 83%
Setaria viridis [7]
  Activity: 89%
Setaria verticillata [8]
  Activity: 70%
Setaria viridis [9]
  Activity: 99%
Setaria viridis [10]
  Activity: 72%
Setaria viridis [11]
  Activity: 53%
Setaria verticillata [12]
  Activity: 90%
Setaria viridis [13]
  Activity: 91%
Setaria viridis [14]
  Activity: 57%
Setaria verticillata [15]
  Activity: 78%
Setaria viridis [16]
  Activity: 86%
Setaria viridis [17]
  Activity: 59%
Setaria verticillata [18]
  Activity: 73%
Setaria verticillata [19]
  Activity: 100%
Setaria verticillata [20]
  Activity: 99%
Setaria viridis [21]
  Activity: 66%
Setaria verticillata [22]
  Activity: 93%
Setaria viridis [23]
  Activity: 66%
Setaria verticillata [24]
  Activity: 75%
Setaria verticillata [25]
  Activity: 95%
Setaria viridis [26]
  Activity: 56%
Setaria viridis [27]
  Activity: 82%
